Assay [1] has as its system CD8+ T cells from HLA-A2+ healthy donors. Nature of the assay: Priming of naive CTLs (immunogenicity assay) with two-colour tetramer staining. Format: cell-based, human. Particulars: for percentage of tetramer positive cells among total CD8+ T cells compared to control: one donor, control co-culture without peptides; for specific CD8+ T cell expansion (immunogenicity): total of 6 healthy donors, FIG. 11A. The method, then:
Priming of naïve CTLs. […] CD14+, CD4+ and CD8+ cells were purified by positive selection using magnetic beads (Miltenyi Biotec). While CD4+ and CD8+ T cells were cryopreserved until the experiment day, CD14+ fraction was cultured in the presence of IL-4 (50 ng/mL) and GM-CSF (10 ng/mL) at 10^6 cells/mL during 5 days to obtain moDCs. After this period of time, the moDCs were maturated with LPS and incubated with synthetic ER-derived peptides at a final concentration of 1 μg/mL for 2 hours.
Tetramer Staining. Cells were resuspended in PBS, stained with Live/Dead Aqua-405 nm (ThermoFisher) during 20 minutes at 4° C. and washed once. After that, cells were resuspended in PBS-1% BSA containing the mix of SA-coupled tetramers and incubated in the dark at room temperature during 20 minutes. Without further washing, surface antibodies were added in PBS-1% BSA and cells were incubated 20 minutes in the dark at 4° C. […] Finally, cells were washed twice and resuspended in FACS buffer for flow cytometry analysis.
Priming assays were thus performed to test the ability of identified peptides to expand specific cytotoxic T cells. […] After loading the moDCs with a mix of synthetic peptides, autologous co-culture was performed with CD4+ and CD8+ T cells. Finally, the expansion of specific CD8+ T cells was analysed by flow cytometry using two-colours tetramer staining. As a control of specific expansion, the co-culture was performed in the absence of peptides.
The same experiment was performed in order to evaluate the response in additional 5 donors. […] As a positive of expansions, mutated Melan-A peptide ([…]) were used.

Assay [2] relates to CD8+ T cells of LUAD patients. In words: Tetramer staining of CD8+ T cells from LUAD patient samples and TILs. Particulars: TILs expanded with peptide mix + IL-2 or IL-2 only. Format: cell-based, human. The method, then:
Tetramer Staining. Cells were resuspended in PBS, stained with Live/Dead Aqua-405 nm (ThermoFisher) during 20 minutes at 4° C. and washed once. After that, cells were resuspended in PBS-1% BSA containing the mix of SA-coupled tetramers and incubated in the dark at room temperature during 20 minutes. Without further washing, surface antibodies were added in PBS-1% BSA and cells were incubated 20 minutes in the dark at 4° C. Surface antibodies were a combination of anti-CD3-BV650+ anti-CD8-PECy7 in combination with anti-CCR7-AF700+ anti-CD45RA-BUV395 when required. Finally, cells were washed twice and resuspended in FACS buffer for flow cytometry analysis.
Tissues and Blood samples. […]
Tumor infiltrating lymphocytes (TILs) cultures. […] Cells were feed/split as necessary during 15-20 days and cryopreserve or analyzed for tetramer staining.
In a first set of experiments tumor infiltrating lymphocytes (TILs) expanded with a mix of TE-derived peptides and Il-2, or only with Il-2, were analyzed by tetramer staining. […]
In a second cohort of 5 primary, untreated, LUAD tumor, juxta-tumor, tumor-draining lymph node and blood samples from LUAD cancer HLA-A2+ patients were analyzed. […]

In assay [3] the target is T1, TE-exon fusion (JET / chimeric) transcript-derived peptide, LUAD (peptide 17) peptide on HLA-A*02:01 (human).
T1 peptide: LLDRFGYHV
Nature of the assay: multimer staining.

Assay [4] deals with T2, TE-exon fusion (JET / chimeric) transcript-derived peptide, LUAD (peptide 53) peptide on HLA-A*02:01 (human).
T2 peptide: MLVTWELAL
Nature of the assay: multimer staining.

Experimental findings from patent publication US20250352577A1, “TUMOR NEOANTIGENIC PEPTIDES AND USES THEREOF” (MNEMO THERAPEUTICS, priority 2021, published 2025) are described below.

Entries after “also recorded” stand apart in the source; their conditions may differ.

As to AILPKANTV, in assay [1], the “percentage of tetramer positive cells among total CD8+ T cells compared to control” value (from here on “percentage”) was “increase in at least one magnitude order” and the “specific CD8+ T cell expansion (immunogenicity)” value (“specific CD8+ T cell expansion” below) is “specific CD8+ T expansions”.

For the molecule AMDGKELSL, in assay [1], the “specific CD8+ T cell expansion” value is listed as “specific CD8+ T expansions”.

As to FLGTRVTRV, the “specific CD8+ T cell expansion” value in assay [1] is listed as “specific CD8+ T expansions”.

In the case of FLIVAEILI, in assay [1], the “percentage” value is reported as “increase in at least one magnitude order”.

In the case of GLLNISHTA, the “specific CD8+ T cell expansion” value in assay [1] was “specific CD8+ T expansions”.

Consider GLPSHVELA, for which the “specific CD8+ T cell expansion” value in assay [1] is listed as “specific CD8+ T expansions; also recorded: immunogenic”. In assay [2], the “tetramer positive CD8+ T cells in TILs of LUAD patients” value is “TILs recognizing”.

For the molecule ILHSLVTGV, in assay [1], the “specific CD8+ T cell expansion” value was “specific CD8+ T expansions”.

In the case of ILSGYGPCV, the “specific CD8+ T cell expansion” value in assay [1] was “specific CD8+ T expansions”.

For the molecule ILTASITSI, the “specific CD8+ T cell expansion” value in assay [1] is reported as “specific CD8+ T expansions”.

As to LLDRFGYHV, the “specific CD8+ T cell expansion” value in assay [1] is recorded as “specific CD8+ T expansions”.

On to LLGETKVYV, for which, in assay [1], the “percentage” value is recorded as “increase in at least one magnitude order” and the “specific CD8+ T cell expansion” value is “specific CD8+ T expansions”.

For LLHLESFLV, the “specific CD8+ T cell expansion” value in assay [1] is reported as “specific CD8+ T expansions”.

LLTSWHLYL: in assay [1], the “specific CD8+ T cell expansion” value is recorded as “specific CD8+ T expansions”.

On to MLMKTVWQA, for which the “specific CD8+ T cell expansion” value in assay [1] was “specific CD8+ T expansions”.

In the case of MLVTWELAL, the “specific CD8+ T cell expansion” value in assay [1] is on record as “specific CD8+ T expansions”.

As for RLADHLSFC, in assay [1], the “percentage” value was “increase in at least one magnitude order” and the “specific CD8+ T cell expansion” value is “specific CD8+ T expansions; also recorded: immunogenic”.

Consider RLLHLESFL, for which, in assay [1], the “percentage” value is recorded as “increase in at least one magnitude order” and the “specific CD8+ T cell expansion” value is “specific CD8+ T expansions”.

In the case of RQAPGFHHA, the “specific CD8+ T cell expansion” value in assay [1] was “specific CD8+ T expansions”.

With SLMQSGSPV, in assay [1], the “specific CD8+ T cell expansion” value is “specific CD8+ T expansions”.

As for VLLTNTIWL, the “specific CD8+ T cell expansion” value in assay [1] is “specific CD8+ T expansions”.

For VLMWTMAHL, the “specific CD8+ T cell expansion” value in assay [1] is listed as “specific CD8+ T expansions”.

Regarding YLPYFLKSL, in assay [1], the “specific CD8+ T cell expansion” value is given as “specific CD8+ T expansions”.

For YLQGLPLPL, the “specific CD8+ T cell expansion” value in assay [1] was “specific CD8+ T expansions”.

YLWTTFFPL: in assay [1], the “percentage” value is reported as “increase in at least one magnitude order” and the “specific CD8+ T cell expansion” value was “specific CD8+ T expansions”.

B1: TCR number 1 (Table 4bis) (TCR)
alpha TRAV41*01 TRAJ34*01 CDR3: CAVLLDNTDKLIF
beta TRBV6-5*01 TRBJ-2*01 CDR3: CASSRLQGALELFF
For the molecule B1, the binding result in assay [3] is on record as “recognises”.

B2: TCR number 4 (Table 4bis) (TCR)
alpha TRAV35*01 TRAJ54*01 CDR3: CAGQLAGAQKLVF
beta TRBV13*01 TRBJ2-5*01 CDR3: CASSPSRDGQETQYF
For B2, the binding result in assay [4] is “recognises”.
